The source of these data is patent US6696479B2, “Crystalline forms” (Ciba Specialty Chemicals Corporation, priority 2001, dated 2004).

The nature of data set [1]: Water content of highly crystalline Form A (Karl Fisher titration). The data set is classed as physicochemical. On the procedure:
Highly crystalline Fluvastatin sodium Form A can generally be prepared by equilibration of an aqueous suspension or solution of Fluvastatin sodium for several hours at temperatures from about 0 to 10° C. and subsequent drying by lyophilization. The process can be accelerated by additional seeding with crystals of Form A during the equilibration period. A characteristic X-ray powder diffraction pattern for highly crystalline Form A is depicted in FIG. 1. The crystallinity of this material is estimated by the powder diffraction spectrum to be more than 90%. The estimated water content is below 2%.
A 30 ml aqueous solution of 30° C. containing ca. 3 grams of Fluvastatin sodium was cooled to about 2° C. and was allowed to stand at this temperature for 6 hours. Subsequently, the off-white coloured suspension was frozen using a dry-ice bath and dried by lyophilization for 24 hours. […] From its X-ray powder diffraction pattern it was estimated that the crystallinity is more than 90%, see FIG. 1.

For data set [2] the following is noted: compared with Form A or the amorphous form; from WO-A-97/49681 / U.S. Pat. No. 6,124,340; cited from earlier work.
Data set [3] in a line: Estimated water content of crystalline forms obtained by equilibration under defined relative humidity. The data set is classed as physicochemical. The text has this:
Forms C, D, E and F can be prepared according to a process, wherein Fluvastatin sodium is exposed to an atmosphere having a defined relative humidity. […] As a rule the estimated water content can range from 3-6%. […] As a rule the estimated water content can range from 6-12%. […] As a rule the estimated water content can range from 15-22%. […] As a rule the estimated water content can range from 24-32%.

Take `CC(C)n1c(/C=C/[C@H](O)C[C@H](O)CC(=O)[O-])c(-c2ccc(F)cc2)c2ccccc21.[Na+]` (racemic) [Form A, (±)-7-(3-(4-fluorophenyl)-1-(1-methylethyl)-1H-indol-2-yl)-3,5-dihydroxy-6-heptenoic acid monosodium salt]: the water content result in data set [1] (Karl Fisher titration, Example 1, lyophilized 24 hours) is “below 2%”. Besides, the estimated water content result in data set [1] (aqueous suspension or solution equilibrated at about 0 to 10° C., then lyophilization) is “below 2%”. `CC(C)n1c(/C=C/[C@H](O)C[C@H](O)CC(=O)[O-])c(-c2ccc(F)cc2)c2ccccc21.[Na+]` (racemic) [Form B, (±)-7-(3-(4-fluorophenyl)-1-(1-methylethyl)-1H-indol-2-yl)-3,5-dihydroxy-6-heptenoic acid monosodium salt]: the hygroscopicity entry in data set [2] was “less hygroscopic than Form A or the amorphous form”. On to `CC(C)n1c(/C=C/[C@H](O)C[C@H](O)CC(=O)[O-])c(-c2ccc(F)cc2)c2ccccc21.[Na+]` (racemic) [Form C, (±)-7-(3-(4-fluorophenyl)-1-(1-methylethyl)-1H-indol-2-yl)-3,5-dihydroxy-6-heptenoic acid monosodium salt], for which the estimated water content in data set [3] (equilibration under relative humidity from about 15 to 25% (for example 6 to 24 hours)) was 3-6%. Consider `CC(C)n1c(/C=C/[C@H](O)C[C@H](O)CC(=O)[O-])c(-c2ccc(F)cc2)c2ccccc21.[Na+]` (racemic) [Form D, (±)-7-(3-(4-fluorophenyl)-1-(1-methylethyl)-1H-indol-2-yl)-3,5-dihydroxy-6-heptenoic acid monosodium salt], for which the estimated water content in data set [3] (equilibration under relative humidity from about 30 to 50% (for example 6 to 24 hours)) is given as 6-12%. As for `CC(C)n1c(/C=C/[C@H](O)C[C@H](O)CC(=O)[O-])c(-c2ccc(F)cc2)c2ccccc21.[Na+]` (racemic) [Form E, (±)-7-(3-(4-fluorophenyl)-1-(1-methylethyl)-1H-indol-2-yl)-3,5-dihydroxy-6-heptenoic acid monosodium salt], in data set [3] (equilibration under relative humidity from about 55 to 75% (for example several days)), the estimated water content is recorded as 15-22%. For the compound `CC(C)n1c(/C=C/[C@H](O)C[C@H](O)CC(=O)[O-])c(-c2ccc(F)cc2)c2ccccc21.[Na+]` (racemic) [Form F, (±)-7-(3-(4-fluorophenyl)-1-(1-methylethyl)-1H-indol-2-yl)-3,5-dihydroxy-6-heptenoic acid monosodium salt], the estimated water content in data set [3] (equilibration under relative humidity from about 80 to 90% (for example several days)) was 24-32%.
